Assay [1] concerns the target T1, NS3/NS4A-2 (full-length HCV NS3 protease complexed with NS4A-2) (Hepatitis C virus genotype 1a, UniProt P27958).
T1 construct: Recombinant E. coli or Baculovirus full-length NS3; host or cells: E. coli or baculovirus (insect cells)
The assay can be described thus: NS3 inhibition assay (NS3-NS4 protease assay). Conditions: recombinant full-length NS3/NS4A-2, RETS1 substrate, kinetic fluorescence read; read-out: NS3-NS4 IC50. Type of assay: biochemical. As for the experimental part:
Recombinant E. coli or Baculovirus full-length NS3 was diluted to 3.33 μM with assay buffer and transferred material to an eppendorf tube and place in water bath in 4° C. refrigerator. The appropriate amount of NS4A-2 to 8.3 mM in assay buffer was added to equal the volume of NS3 in step 2.1.1 (conversion factor −3.8 mg/272 μL assay buffer). The material was transferred to an eppendorf tube and place in water bath in 4° C. refrigerator.
After equilibration to 4° C., equal volumes of NS3 and NS4A-2 solutions were combined in an eppendorf tube, mix gently with a manual pipettor, and incubate mixture for 15 minutes in the 4° C. water bath. Final concentrations in the mixture are 1.67 μM NS3, 4.15 mM NS4A-2 (2485-fold molar excess NS4A-2).
After 15 minutes at 4° C., the NS3/NS4A-2 eppendorf tube was removed and place it in a room temperature water bath for 10 minutes. NS3/NS4A-2 was aliquoted at appropriate volumes and store at −80° C. (E. coli NS3 run at 2 nM in assay, aliquot at 25 μL. BV NS3 run at 3 nM in assay, aliquot at 30 μL).
Sample compounds were dissolved to 10 mM in DMSO then diluted to 2.5 mM (1:4) in DMSO. Typically, compounds were added to an assay plate at 2.5 mM concentration, yielding upon dilution a starting concentration of 50 microM in the assay inhibition curve. Compounds were serial diluted in assay buffer to provide test solutions at lower concentrations.
The E. coli. NS3/NS4A-2 was diluted to 4 nM NS3 (1:417.5 of 1.67 μM stock−18 μL1.67 μM stock+7497 μL assay buffer). The BV NS3/NS4A-2 was diluted to 6 nM NS3 (1:278.3 of 1.67 μM stock−24 μL1.67 μM stock+6655 μL assay buffer). Using the manual multichannel pipettor, careful not to introduce bubbles into the plate, add 50 μL assay buffer to wells A01-H01 of a black Costar 96-well polypropylene storage plate.
Using the manual multichannel pipettor, careful not to introduce bubbles into the plate, add 50 μL of diluted NS3/NS4A-2 from step 2.2.6 to wells A02-H12 of plate in step 2.2.7. Using the manual multichannel pipettor, careful not to introduce bubbles into the plate, transfer 25 μL of the wells in drug dilution plate in step 2.2.5 to corresponding wells in assay plate in step 2.2.8. Change tips on multichannel pipettor for each row of compounds transferred. Using the manual multichannel pipettor, careful not to introduce bubbles into the plate, mix the wells from the assay plate in step 2.2.9 by aspirating and dispensing 35 μL of the 75 μL in each well five times. Change tips on multichannel pipettor for each row of wells mixed. Cover plate with a polystyrene plate lid and pre-incubate the plate from step 2.2.10 containing NS3 protease and sample compounds 10 minutes at room temperature. While plate from step 2.2.11 is pre-incubating, dilute RETS1 substrate in a 15 mL polypropylene centrifuge tube. Dilute RETS1 substrate to 8 μM (1:80.75 of 646 μM stock−65 μL 646 μM stock+5184 μL assay buffer).
After the plate in step is done pre-incubating, and using the manual multichannel, add 25 μL of substrate to all wells on the plate. Quickly mix the plate as in step 2.2.10, mixing 65 μL of the 100 μL in the wells.
Read the plate in kinetic mode on the Molecular Devices SpectraMax Gemini XS plate reader. Reader settings: Read time: 30 minutes, Interval: 36 seconds, Reads: 51, Excitation λ: 335 nm, Emission λ: 495 nm, cutoff: 475 nm, Automix: off, Calibrate: once, PMT: high, Reads/well: 6, Vmax pts: 21 or 28/51 depending on length of linearity of reaction
IC50s are determined using a four parameter curve fit equation, and converted to Ki's using the following Km's: • Full-length E. coli NS3−2.03 μM • Full-length BV NS3−1.74 μM • where Ki=IC50/(1+[S]/Km)) • Quantitation by ELISA of the Selectable Marker Protein, Neomycin Phosphotransferase II (NPTII) in the HCV Sub-Genomic Replicon, GS4.3

Assay [2] has as its system HCV sub-genomic replicon (1377/NS3-3') in HuH-7 hepatoma cells (GS4.3). Put plainly: Quantitation by ELISA of NPTII in the HCV sub-genomic replicon, GS4.3. Format: cell-based, hepatitis C virus (HCV). Conditions: GS4.3 cells, 72 h incubation, NPTII ELISA, read-out: Replicon EC50. The protocol:
The HCV sub-genomic replicon (1377/NS3-3′, accession No. AJ242652), stably maintained in HuH-7 hepatoma cells, was created by Lohmann et al. Science 285: 110-113 (1999). The replicon-containing cell culture, designated GS4.3, was obtained from Dr. Christoph Seeger of the Institute for Cancer Research, Fox Chase Cancer Center, Philadelphia, Pa.
GS4.3 cells were maintained at 37° C., 5% CO2, in DMEM (Gibco 11965-092) supplemented with L-glutamine 200 mM (100×) (Gibco25030-081), non-essential amino acids (NEAA) (Biowhittaker 13-114E), heat-inactivated (HI) Fetal Bovine Serum (FBS) (Hyclone SH3007.03) and 750 μg/mL geneticin (G418)(Gibco 10131-035). Cells were sub-divided 1:3 or 4 every 2-3 days.
24 h prior to the assay, GS4.3 cells were collected, counted, and plated in 96-well plates (Costar 3585) at 7500 cells/well in 100 μL standard maintenance medium (above) and incubated in the conditions above. To initiate the assay, culture medium was removed, cells were washed once with PBS (Gibco 10010-023) and 90 μl Assay Medium (DMEM, L-glutamine, NEAA, 10% HI FBS, no G418) was added. Inhibitors were made as a 10× stock in Assay Medium, (3-fold dilutions from 10 μM to 56 pM final concentration, final DMSO concentration 1%), 10 μL were added to duplicate wells, plates were rocked to mix, and incubated as above for 72 h.
An NPTII Elisa kit was obtained from AGDIA, Inc. (Compound direct ELISA test system for Neomycin Phosphotransferase II, PSP 73000/4800). Manufacturer's instructions were followed, with some modifications. 10×PEB-1 lysis buffer was made up to include 500 μM PMSF (Sigma P7626, 50 mM stock in isopropanol). After 72 h incubation, cells were washed once with PBS and 150 μL PEB-1 with PMSF was added per well. Plates were agitated vigorously for 15 minutes, room temperature, then frozen at −70° C. Plates were thawed, lysates were mixed thoroughly, and 100 μl were applied to an NPTII Elisa plate. A standard curve was made. Lysate from DMSO-treated control cells was pooled, serially diluted with PEB-1 with PMSF, and applied to duplicate wells of the ELISA plate, in a range of initial lysate amount of 150 μL-2.5 μL. In addition, 100 μL buffer alone was applied in duplicate as a blank. Plates were sealed and gently agitated at room temperature for 2 h. Following capture incubation, the plates were washed 5×300 μL with PBS-T (0.5% Tween-20, PBS-T was supplied in the ELISA kit). For detection, a 1× dilution of enzyme conjugate diluent MRS-2 (5×) was made in PBS-T, into which 1:100 dilutions of enzyme conjugates A and B were added, as per instructions. Plates were resealed, and incubated with agitation, covered, room temperature, for 2 h. The washing was then repeated and 100 μL of room temperature TMB substrate was added. After approximately 30 minutes incubation (room temperature, agitation, covered), the reaction was stopped with 50 μL 3M sulfuric acid. Plates were read at 450 nm on a Molecular Devices Versamax plate reader.
Inhibitor effect was expressed as a percentage of DMSO-treated control signal, and inhibition curves were calculated using a 4-parameter equation: y=A+((B−A)/(1+((C/x)^D))), where C is half-maximal activity or EC50.
(ELISA stands for enzyme-linked immunosorbent assay.)

In general, IC50 refers to the midpoint of a concentration-inhibition curve. By EC50 is commonly meant the concentration giving half of the maximal effect.

Where two headings read alike, the source gives them in different places.

T1 sequence (P27958 1027-1657, one chain of several): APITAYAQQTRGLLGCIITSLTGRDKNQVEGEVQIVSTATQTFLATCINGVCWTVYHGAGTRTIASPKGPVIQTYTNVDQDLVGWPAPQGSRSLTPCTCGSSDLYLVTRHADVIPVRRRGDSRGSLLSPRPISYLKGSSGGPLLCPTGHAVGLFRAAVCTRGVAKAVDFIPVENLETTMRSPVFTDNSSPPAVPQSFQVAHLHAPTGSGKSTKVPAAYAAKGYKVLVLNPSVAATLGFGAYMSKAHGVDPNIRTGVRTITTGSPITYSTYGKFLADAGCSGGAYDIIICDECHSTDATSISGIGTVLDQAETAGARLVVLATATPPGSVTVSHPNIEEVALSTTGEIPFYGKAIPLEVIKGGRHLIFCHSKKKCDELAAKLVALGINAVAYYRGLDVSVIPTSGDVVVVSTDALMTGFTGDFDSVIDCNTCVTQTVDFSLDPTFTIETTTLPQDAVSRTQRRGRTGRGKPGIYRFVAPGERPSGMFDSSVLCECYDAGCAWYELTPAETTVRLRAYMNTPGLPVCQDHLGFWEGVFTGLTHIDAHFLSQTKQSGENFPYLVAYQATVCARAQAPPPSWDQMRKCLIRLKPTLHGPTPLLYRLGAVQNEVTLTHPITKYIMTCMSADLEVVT

Regarding “[(3R,5S)-5-(((1R,2R)-1-(Cyclopropylsulfonylcarbamoyl)-2-ethylcyclopropyl)carbamoyl)-1-((S)-2-cyclohexyl-2-(5-ethylthiazol-2-ylamino)acetyl)pyrrolidin-3-yl]4-chloroisoindoline-2-carboxylate [Compound 64]”, the IC50 in assay [1] was below 0.1 µM. In addition, the EC50 in assay [2] is below 0.1 µM.

On to `CC[C@@H]1C[C@]1(NC(=O)[C@@H]1C[C@@H](OC(=O)N2Cc3cccc(F)c3C2)CN1C(=O)[C@@H](Nc1cccc(C#N)c1)C(C)C)C(=O)NS(=O)(=O)C1CC1` [Compound 51, [(3R,5S)-1-((S)-2-(3-cyanophenylamino)-3-methylbutanoyl)-5-((1R,2R)-1-(cyclopropylsulfonylcarbamoyl)-2-ethylcyclopropylcarbamoyl)pyrrolidin-3-yl]4-fluoroisoindoline-2-carboxylate], for which, in assay [1], the IC50 was below 0.1 µM. The EC50 in assay [2] (Hepatitis C virus, Huh-7) was in the range of 0.1 to 1 µM.

As for `C=C[C@@H]1C[C@]1(NC(=O)[C@@H]1C[C@@H](OC(=O)N2Cc3cccc(F)c3C2)CN1C(=O)[C@@H](Nc1ccc(F)cc1)C(C)C)C(=O)NS(=O)(=O)C1CC1` [Compound 33, (3R,5S)-5-((1R,2S)-1-(cyclopropylsulfonylcarbamoyl)-2-vinylcyclopropylcarbamoyl)-1-((S)-2-(4-fluorophenylamino)-3-methylbutanoyl)pyrrolidin-3-yl 4-fluoroisoindoline-2-carboxylate], the IC50 in assay [1] is below 0.1 µM. For the same compound, the EC50 in assay [2] (Hepatitis C virus, Huh-7) lay in the range of 0.1 to 1 µM.

Regarding `CC[C@@H]1C[C@]1(NC(=O)[C@@H]1C[C@@H](OC(=O)N2Cc3cccc(Cl)c3C2)CN1C(=O)[C@@H](Nc1cccc(N2CCOCC2)c1)C(C)(C)C)C(=O)NS(=O)(=O)C1CC1` [Compound 75], the IC50 in assay [1] was below 0.1 µM. Besides, the EC50 in assay [2] (Hepatitis C virus, Huh-7) was below 0.1 µM.

“[(3R,5S)-5-(((1R,2R)-1-(Cyclopropylsulfonylcarbamoyl)-2-ethylcyclopropyl)carbamoyl)-1-((S)-2-(5-isopropylthiazol-2-ylamino)-3-methylbutanoyl)pyrrolidin-3-yl]4-chloroisoindoline-2-carboxylate [Compound 67]”: the IC50 in assay [1] is below 0.1 µM. For the same compound, the EC50 in assay [2] is below 0.1 µM.

`C=C[C@@H]1C[C@]1(NC(=O)[C@@H]1C[C@@H](OC(=O)N2Cc3cccc(Cl)c3C2)CN1C(=O)[C@@H](Nc1ccc(F)cc1)C(C)C)C(=O)NS(=O)(=O)C1CC1` [Compound 34, [(3R,5S)-5-((1R,2S)-1-(cyclopropylsulfonylcarbamoyl)-2-vinylcyclopropylcarbamoyl)-1-((S)-2-(4-fluorophenylamino)-3-methylbutanoyl)pyrrolidin-3-yl]4-chloroisoindoline-2-carboxylate]: in assay [1], the IC50 is below 0.1 µM. In addition, the EC50 in assay [2] (Hepatitis C virus, Huh-7) was below 0.1 µM.

`CC[C@@H]1C[C@]1(NC(=O)[C@@H]1C[C@@H](OC(=O)N2Cc3cccc(F)c3C2)CN1C(=O)[C@@H](Nc1cccc(C(C)(C)C)c1)C(C)C)C(=O)NS(=O)(=O)C1CC1` [Compound 45, [(3R,5S)-1-((S)-2-(3-tert-butylphenylamino)-3-methylbutanoyl)-5-((1R,2R)-1-(cyclopropylsulfonylcarbamoyl)-2-ethylcyclopropylcarbamoyl)pyrrolidin-3-yl]4-fluoroisoindoline-2-carboxylate]: the IC50 in assay [1] was below 0.1 µM. For the same compound, the EC50 in assay [2] (Hepatitis C virus, Huh-7) was below 0.1 µM.

With `CC[C@@H]1C[C@]1(NC(=O)[C@@H]1C[C@@H](OC(=O)N2Cc3cccc(F)c3C2)CN1C(=O)[C@@H](Nc1cncc(C(F)(F)F)c1)C(C)C)C(=O)NS(=O)(=O)C1CC1` [Compound 48, [(3R,5S)-5-((1R,2R)-1-(cyclopropylsulfonylcarbamoyl)-2-ethylcyclopropylcarbamoyl)-1-((S)-3-methyl-2-(5-(trifluoromethyl)pyridin-3-ylamino)butanoyl)pyrrolidin-3-yl]4-fluoroisoindoline-2-carboxylate], the IC50 in assay [1] was below 0.1 µM. For the same compound, in assay [2] (Hepatitis C virus, Huh-7), the EC50 was 0.1 to 1 µM.

For the compound `C=C[C@@H]1C[C@]1(NC(=O)[C@@H]1C[C@@H](OC(=O)N2Cc3cccc(F)c3C2)CN1C(=O)[C@@H](Nc1cccc(C(C)(C)C)c1)C(C)C)C(=O)NS(=O)(=O)C1CC1` [Compound 40, [(3R,5S)-1-((S)-2-(3-tert-butylphenylamino)-3-methylbutanoyl)-5-((1R,2S)-1-(cyclopropylsulfonylcarbamoyl)-2-vinylcyclopropylcarbamoyl)pyrrolidin-3-yl]4-fluoroisoindoline-2-carboxylate], in assay [1], the IC50 was below 0.1 µM. The EC50 in assay [2] (Hepatitis C virus, Huh-7) is below 0.1 µM.

Values taken from patent US7932277B2, “Peptide inhibitors of hepatitis C virus replication” (InterMune, Inc., priority 2007, dated 2011).
